Data on 16 compounds can be found in patent publication US12503473B2, “Triazolopyrimidine compounds and their use in treating cancer” (Dizal (Jiangsu) Pharmaceutical Co., Ltd., priority 2018, dated 2025).

Test [1] has as its target T1, MCT4 (Homo sapiens, UniProt O15427).
T1 sequence (O15427 1-465): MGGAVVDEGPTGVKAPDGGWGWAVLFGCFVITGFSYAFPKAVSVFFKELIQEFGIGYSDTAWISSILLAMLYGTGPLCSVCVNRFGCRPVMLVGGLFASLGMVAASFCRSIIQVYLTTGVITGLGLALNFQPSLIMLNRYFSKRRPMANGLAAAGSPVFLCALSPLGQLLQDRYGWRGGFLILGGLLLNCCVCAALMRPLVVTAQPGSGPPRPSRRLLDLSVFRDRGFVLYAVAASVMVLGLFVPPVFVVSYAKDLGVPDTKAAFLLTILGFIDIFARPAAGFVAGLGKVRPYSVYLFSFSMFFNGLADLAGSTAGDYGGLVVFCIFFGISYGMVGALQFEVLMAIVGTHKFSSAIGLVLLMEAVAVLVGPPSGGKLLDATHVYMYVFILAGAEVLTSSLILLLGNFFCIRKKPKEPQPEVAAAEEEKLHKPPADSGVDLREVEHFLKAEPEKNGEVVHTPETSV
Nature of the test: cell-based.
Description: (§1) Cells were loaded with the pH sensitive dye BCECFAM(Invitrogen #B11150) before being washed to remove excess dye and seeded into the assay plates—directly onto the test compound—at a density of 15,000 cells/well (NCI—H358) or 30,000 cells/well (K562), in 30 μl HBSS with 1 mM [final] […] Assay plates were lidded and spun in a plate centrifuge at 170 g for 1 minute. Plates were then wrapped in foil and incubated in the dark for 1 hour at room temperature.
(§2) Following incubation with test compound, 10 μl of 25 mM Sodium-L-Lactate (Sigma #L7022) made up in HBSS with 1 mM [final] […] This addition was performed directly on the FLIPR Tetra platform (Molecular Devices) as part of a real-time kinetic read protocol. […] A percentage change from base-line was calculated for each test well and values normalised to control wells—treated with either DMSO (maximum assay signal) or chemistry related to that described in this patent (minimum assay signal)—before fitting concentration response curves to determine an IC50 value.

Another test deals with T2, MCT1 (Homo sapiens, UniProt P53985).
T2 construct: a human erythroleukemia line predominantly expressing MCT1, a small amount of MCT2 and no MCT4; host or cells: K562
T2 sequence (P53985 1-500): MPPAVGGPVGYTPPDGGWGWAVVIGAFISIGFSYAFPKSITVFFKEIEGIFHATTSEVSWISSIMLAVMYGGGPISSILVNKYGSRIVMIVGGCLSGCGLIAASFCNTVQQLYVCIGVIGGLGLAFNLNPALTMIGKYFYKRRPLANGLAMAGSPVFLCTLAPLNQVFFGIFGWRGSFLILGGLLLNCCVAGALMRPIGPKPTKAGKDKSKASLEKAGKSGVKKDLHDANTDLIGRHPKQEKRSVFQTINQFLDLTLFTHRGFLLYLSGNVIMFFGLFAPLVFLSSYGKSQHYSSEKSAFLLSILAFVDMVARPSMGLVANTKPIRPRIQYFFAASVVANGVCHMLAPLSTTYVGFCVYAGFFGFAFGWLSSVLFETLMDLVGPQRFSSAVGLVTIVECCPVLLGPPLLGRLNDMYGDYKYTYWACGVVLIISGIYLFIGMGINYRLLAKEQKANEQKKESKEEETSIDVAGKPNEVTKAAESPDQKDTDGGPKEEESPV
Nature of the test: Assay (c): FLIPR BCECF lactate influx in K562 cells. As to conditions: mean of at least three repeats, read-out: MCT1 FLIPR pIC50 (K562) (converted). Format: cell-based.

The target of test [2] is T1, MCT4. Nature of the test: Assay (d): FLIPR BCECF lactate influx in INS-1 MCT4 cells. Format: cell-based, rat. On the set-up: expressed in transfected cells. As to conditions: INS-1 cells stably expressing human MCT4; mean of at least three repeats; read-out: MCT4 FLIPR pIC50 (INS-1) (converted). As to the method: INS-1 MCT4 cells were generated through transfection of the parental cell background with the following DNA sequence, inserted into a pcDNA3.1 (ThermoFisher #V79020) mammalian expression vector:
The resultant cell pool was continually cultured at 37° C. and 5% CO2 under antibiotic selection in RPMI (Sigma #R0883) medium containing 1% L glutamine (Sigma #G7513), 10% FBS (Sigma #F7524), 10 mM [final] […] An individual clone was selected and expanded before being cryopreserved in a number of individual vials for continued use. Prior to testing in the biological assay, an individual INS-1 MCT4 cryovial was defrosted and continually passaged over a number of weeks—in the Geneticin selection media described previously—to obtain the requesite cell number.

For test [3], the target named is T1, MCT4. Nature of the test: Assay (a): lactate efflux from SK-Br-3 cells (lactate in media, 4 h). It is filed as cell-based. Further details: a natively glycolytic human breast adenocarcinoma line predominantly expressing MCT4; host or cells: SK-Br-3. As to conditions: mean of at least three repeats (Example 32, marked *, two repeats), read-out: MCT4 lactate efflux pIC50 (SKBR3) (converted). As to the method: Assay plates were lidded and incubated for 4 hours at 37° C. and 5% CO2.

The structures appear in SMILES notation. Where only a bound is given, the exact number is not on record here.

Description for MCT1: as §1, §2

Take `Cc1nc2nc(C)c(O[C@@H]3CCN(c4cnc(-c5ccc([C@@H](C)N6CCOCC6)cc5)cn4)C3)c(C)n2n1` (single isomer, unassigned) [Example 86]: the IC50 against MCT4 [1] is 12.6 nM; at MCT1, over 25100 nM; on MCT4 [2], 3.16 nM; on MCT4 [3] it was 2.51 nM.

Turning to `Cc1nc2nc(C)c(O[C@@H]3CCN(c4cnc(-c5ccc(C(C)N6CCOCC6)cc5)cn4)C3)c(C)n2n1` (single isomer, unassigned) [Example 87], the IC50 was 12.6 nM on MCT4 [1], over 25100 nM at MCT1, 3.98 nM at MCT4 [2] and 1.26 nM on MCT4 [3].

Regarding `COCCN1CCN(Cc2ccc(-c3cnc(N4CC[C@@H](Cc5c(C)nc6nc(C)nn6c5C)C4)cn3)cc2)CC1` [Example 42, (R)-6-((1-(5-(4-((4-(2-methoxyethyl)piperazin-1-yl)methyl)phenyl)pyrazin-2-yl)pyrrolidin-3-yl)methyl)-2,5,7-trimethyl-[1,2,4]triazolo[1,5-a]pyrimidine], the IC50 at MCT4 [1] is 10 nM; at MCT1, over 25100 nM; on MCT4 [2], 6.31 nM; at MCT4 [3], 0.794 nM.

For the compound `CC(=O)N1CCN(Cc2ccc(-c3cnc(N4CC[C@@H](Cc5c(C)nc6nc(C)nn6c5C)C4)cn3)cc2)CC1` [Example 58, (R)-1-(4-(4-(5-(3-((2,5,7-trimethyl-[1,2,4]triazolo[1,5-a]pyrimidin-6-yl)methyl)pyrrolidin-1-yl)pyrazin-2-yl)benzyl)piperazin-1-yl)ethanone], the IC50 was 12.6 nM against MCT4 [1], over 25100 nM on MCT1 and 0.631 nM on MCT4 [3].

For the compound `Cc1nc2nc(C)c(C[C@@H]3CCN(c4cnc(-c5ccc(CN6CCOCC6)cc5)cn4)C3)c(C)n2n1` [Example 60, (R)-4-(4-(5-(3-((2,5,7-trimethyl-[1,2,4]triazolo[1,5-a]pyrimidin-6-yl)methyl)pyrrolidin-1-yl)pyrazin-2-yl)benzyl)morpholine], the IC50 was 7.94 nM against MCT4 [1], 12600 nM on MCT1, 5.01 nM on MCT4 [2] and 0.398 nM on MCT4 [3].

As to `Cc1nc2nc(C)c(O[C@@H]3CCN(c4ccc(-c5ccc(CN6CCCCC6)nn5)cc4)C3)c(C)n2n1` [Example 64, (R)-2,5,7-trimethyl-6-((1-(4-(6-(piperidin-1-ylmethyl)pyridazin-3-yl)phenyl)pyrrolidin-3-yl)oxy)-[1,2,4]triazolo[1,5-a]pyrimidine], the IC50 at MCT4 [1] was 50.1 nM; on MCT1, over 25100 nM; at MCT4 [2] it was 15.8 nM; at MCT4 [3], 1.58 nM.

`Cc1nc2nc(C)c(O[C@@H]3CCN(c4ccc(-c5ccc(CN6C7CCC6CN(C)C7)nn5)cc4)C3)c(C)n2n1` [Example 66, 2,5,7-trimethyl-6-(((3R)-1-(4-(6-((3-methyl-3,8-diazabicyclo[3.2.1]octan-8-yl)methyl)pyridazin-3-yl)phenyl)pyrrolidin-3-yl)oxy)-[1,2,4]triazolo[1,5-a]pyrimidine]: the IC50 at MCT4 [1] is 50.1 nM; at MCT1 it was over 25100 nM; on MCT4 [2], 25.1 nM; at MCT4 [3], 2 nM.

Turning to `Cc1nc2nc(C)c(O[C@@H]3CCN(c4ccc(-c5ccc(CN6CCN7CCC[C@@H]7C6)nn5)cc4)C3)c(C)n2n1` [Example 67, 6-(((R)-1-(4-(6-(((R)-hexahydropyrrolo[1,2-a]pyrazin-2(1H)-yl)methyl)pyridazin-3-yl)phenyl)pyrrolidin-3-yl)oxy)-2,5,7-trimethyl-[1,2,4]triazolo[1,5-a]pyrimidine], the IC50 against MCT4 [1] was 63.1 nM; at MCT1, over 25100 nM; at MCT4 [3] it was 2 nM.

`Cc1nc2nc(C)c(O[C@@H]3CCN(c4ccc(-c5ccc(CN6CCN7CCC[C@H]7C6)nn5)cc4)C3)c(C)n2n1` [Example 68, 6-(((R)-1-(4-(6-(((S)-hexahydropyrrolo[1,2-a]pyrazin-2(1H)-yl)methyl)pyridazin-3-yl)phenyl)pyrrolidin-3-yl)oxy)-2,5,7-trimethyl-[1,2,4]triazolo[1,5-a]pyrimidine]: the IC50 was 100 nM at MCT4 [1], over 25100 nM on MCT1 and 3.16 nM on MCT4 [3].

For the compound `Cc1nc2nc(C)c(O[C@@H]3CCN(c4ccc(-c5cnc(CN6CCOCC6)nc5)cc4)C3)c(C)n2n1` [Example 69, (R)-4-((5-(4-(3-((2,5,7-trimethyl-[1,2,4]triazolo[1,5-a]pyrimidin-6-yl)oxy)pyrrolidin-1-yl)phenyl)pyrimidin-2-yl)methyl)morpholine], the IC50 was 12.6 nM on MCT4 [1], over 25100 nM on MCT1, 3.16 nM at MCT4 [2] and 2 nM at MCT4 [3].

For the compound `Cc1nc2nc(C)c(O[C@@H]3CCN(c4ccc(-c5cnc(CN6CCOCC6)cn5)cc4)C3)c(C)n2n1` [Example 70, (R)-4-((5-(4-(3-((2,5,7-trimethyl-[1,2,4]triazolo[1,5-a]pyrimidin-6-yl)oxy)pyrrolidin-1-yl)phenyl)pyrazin-2-yl)methyl)morpholine], the IC50 was 5.01 nM on MCT4 [1], over 25100 nM at MCT1, 1.58 nM at MCT4 [2] and 0.631 nM on MCT4 [3].

`CCN1CCN(Cc2ccc(-c3ccc(N4CC[C@@H](Oc5c(C)nc6nc(C)nn6c5C)C4)cc3)nn2)CC1` [Example 72, (R)-6-((1-(4-(6-((4-ethylpiperazin-1-yl)methyl)pyridazin-3-yl)phenyl)pyrrolidin-3-yl)oxy)-2,5,7-trimethyl-[1,2,4]triazolo[1,5-a]pyrimidine]: the IC50 was 79.4 nM against MCT4 [1], over 25100 nM at MCT1 and 2.51 nM on MCT4 [3].

With `COCCN1CCN(Cc2ccc(-c3ccc(N4CC[C@@H](Oc5c(C)nc6nc(C)nn6c5C)C4)cc3)nn2)CC1` [Example 73, (R)-6-((1-(4-(6-((4-(2-methoxyethyl)piperazin-1-yl)methyl)pyridazin-3-yl)phenyl)pyrrolidin-3-yl)oxy)-2,5,7-trimethyl-[1,2,4]triazolo[1,5-a]pyrimidine], the IC50 on MCT4 [1] was 50.1 nM; at MCT1, over 25100 nM; at MCT4 [2], 31.6 nM; on MCT4 [3] it was 3.16 nM.

As to `Cc1nc2nc(C)c(O[C@@H]3CCN(c4ccc(-c5ccc(CN6CCOCC6)cn5)cn4)C3)c(C)n2n1` [Example 74, (R)-4-((6′-(3-((2,5,7-trimethyl-[1,2,4]triazolo[1,5-a]pyrimidin-6-yl)oxy)pyrrolidin-1-yl)-[2,3′-bipyridin]-5-yl)methyl)morpholine], the IC50 against MCT4 [1] was 10 nM; on MCT1, over 25100 nM; at MCT4 [2] it was 2 nM; on MCT4 [3], 2 nM.

For the compound `Cc1nc2nc(C)c(O[C@@H]3CCN(c4ccc(-c5ccc(CN6CCOCC6)nc5)cn4)C3)c(C)n2n1` [Example 75, (R)-4-((6′-(3-((2,5,7-trimethyl-[1,2,4]triazolo[1,5-a]pyrimidin-6-yl)oxy)pyrrolidin-1-yl)-[3,3′-bipyridin]-6-yl)methyl)morpholine], the IC50 was 12.6 nM against MCT4 [1], over 25100 nM at MCT1, 3.16 nM on MCT4 [2] and 3.16 nM on MCT4 [3].

With `Cc1nc2nc(C)c(C[C@@H]3CCN(c4cnc(-c5ccc(CN6CCCC6)cn5)cn4)C3)c(C)n2n1` [Example 81, (R)-2,5,7-trimethyl-6-((1-(5-(5-(pyrrolidin-1-ylmethyl)pyridin-2-yl)pyrazin-2-yl)pyrrolidin-3-yl)methyl)-[1,2,4]triazolo[1,5-a]pyrimidine], the IC50 against MCT4 [1] is 15.8 nM; at MCT1 it was 5010 nM; on MCT4 [2], 3.16 nM; at MCT4 [3], 3.16 nM.
